Converted amounts (≈) assume the structure as drawn.
Legend:
Format in all cases: cell-based
[1] = test system: Mouse prostate cancer cell line RM1; experiment: Inhibitory activity on cancer cells, CellTiter-Glo viability, RM1; settings: 72 hours treatment
Procedure: (§1) HUVEC (purchased from Allcells Biological Technology (Shanghai) Co., Ltd.); UM-UC-3 (ATCC); LNCaP (ATCC); RM-1 (purchased from Nanjing Cobioer Biosciences Co., Ltd.) (1) On the first day, the cells were seeded in a 96-well plate, and the previous medium was poured off. 5 mL of DPBS was added to wash the cells, and then removed by a pipette and discarded. Then, 1 mL of trypsin (0.25%) was added, and the plate was placed in a cell culture incubator at 37 °C, 5% CO2 for digestion, and taken out after about 2 to 5 minutes. New corresponding medium was added, and pipetted to resuspend the cells evenly, and the cells were then counted with an automated cell counter. Regarding HUVEC, the medium used was endothelial cell complete medium; regarding UM-UC-3, the medium used was 89 v % EMEM+10 v % fetal bovine serum+1 v % penicillin-streptomycin double anti-body; regarding LNcaP, the medium used was 89 v % RPM11640+10 v % fetal bovine serum+1 v % penicillin-streptomycin double anti-body; and regarding RM1, the medium used was 89 v % DMEM+10 v % fetal bovine serum+1 v % penicillin-streptomycin double anti-body. (2) HUVEC cells were seeded in columns 1 to 11 of a 96-well plate (Corning, Cat. No. 3610) at a density of 2000 cells per well in 100 μL of medium, and the medium free of cell was added to the wells of column 12. The other three types of cells were also seeded, wherein UM-UC-3 and RM-1 cells were seeded at a density of 3000 cells per well, and LNCap cells were seeded at a density of 5000 cells per well. Then, the plate was placed in an incubator at 37° C., 5% CO2 for 24 hours. (3) On the second day, the compounds of the present invention and the reference drug nitroxoline (obtained according to the preparation method disclosed in the prior art) were diluted in gradient (2.5 folds, started at 100 μmol) to obtain 8 dose points (there were a total of 8 columns of wells; the first column of wells had the highest concentration, the concentration decreased in turn, and the last column of wells had the lowest concentration). 10 μL of the compound diluted in gradient was added to the 100 μL of cells in column 1 to column 10 with an 8-channel pipette. 10 μL of the corresponding medium containing 0.33 v % DMSO was added to column 11 and column 12. The plate was incubated in an incubator at 37° C., 5% CO2 for 72 hours (note: column 11 was used as MAX well with cells and no compounds; and column 12 was used as MIN well with no cells and no compounds). (4) After treating with the compounds of the present invention for 72 hours, the cell viability detection reagents in the above CellTiter-Glo® assay kit were added to the 96-well plate at 50 μL per well according to the instructions. The plate was shaken on a shaker in the dark for 5 to 10 minutes, and then the cell activity was determined by a multifunctional microplate reader. Finally, the growth inhibition of the compounds of the present invention on the cells was plotted by XLFIT 5.3 software, and the IC50 values of the compounds of the present invention were calculated.

[2] = test system: Staphylococcus aureus (methicillin-resistant and sensitive clinical isolates; ATCC29213); experiment: MIC by micro broth dilution (CLSI), Staphylococcus aureus; settings: for MIC50 / MIC90: Clinical strain; for MIC50: read-out: MIC50; for MIC90: read-out: MIC90; for MIC: Standard strain ATCC29213, read-out: MIC
Method in brief: (§2)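 Compounds were dissolved in DMSO and tested at 128 to 0.06 mg/L in cation-adjusted Mueller-Hinton broth. Overnight cultures were set to 0.5 McFarland, diluted 100-fold to a final 10^5 CFU/mL, and incubated at 35±2° C for 20 hours in air. Results were interpreted by CLSI 2019 M100 criteria.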

[3] = test system: Bladder cancer cell line UM-UC-3; experiment: Inhibitory activity on cancer cells, CellTiter-Glo viability, UM-UC-3; settings: Homo sapiens, UMUC3, 72 hours treatment
Procedure: as §1

[4] = test system: Escherichia coli (carbapenem-resistant clinical isolate; ATCC25922); experiment: MIC by micro broth dilution (CLSI), Escherichia coli; settings: for MIC50 / MIC90: ATCC25922, Clinical strain; for MIC50 / MIC90 / MIC: Escherichia coli; for MIC50: read-out: MIC50; for MIC90: read-out: MIC90; for MIC: Standard strain ATCC25922, read-out: MIC
Method in brief: as §2

[5] = test system: Endothelial cell line HUVEC; experiment: Inhibitory activity on cells, CellTiter-Glo viability, HUVEC; settings: Homo sapiens, 72 hours treatment
Procedure: as §1

[6] = test system: Acinetobacter baumannii (carbapenem-resistant clinical isolates; ATCC19606); experiment: MIC by micro broth dilution (CLSI), Acinetobacter baumannii; settings: for MIC50 / MIC90: ATCC19606, Clinical strain; for MIC50 / MIC90 / MIC: Acinetobacter baumannii; for MIC50: read-out: MIC50; for MIC90: read-out: MIC90; for MIC: Standard strain ATCC19606, read-out: MIC
Method in brief: as §2

[7] = test system: Prostate cancer cell line LNcaP; experiment: Inhibitory activity on cancer cells, CellTiter-Glo viability, LNcaP; settings: Homo sapiens, 72 hours treatment
Procedure: as §1

Row | Compound | IC50 [1] [µM] | MIC50 [2] [µg/mL] | MIC90 [2] [µg/mL] | MIC [2] [µg/mL] | IC50 [3] [µM] | MIC50 [4] [µg/mL] | MIC90 [4] [µg/mL] | MIC [4] [µg/mL] | inhibitory effect against Escherichia coli compared with the reference drug nitroxoline ([4]; MIC comparison) | IC50 [5] [µM] | MIC50 [6] [µg/mL] | MIC90 [6] [µg/mL] | MIC [6] [µg/mL] | inhibitory effect against Acinetobacter baumannii compared with the reference drug nitroxoline ([6]; MIC comparison) | IC50 [7] [µM]
1 | O=[N+]([O-])c1cc(Cl)c2c(Cl)ccnc2c1O [Example 29, 4,5-dichloro-7-nitroquinolin-8-ol] | 6.5 | 0.5 (≈ 1.93 µM) | 1 (≈ 3.86 µM) | 1 (≈ 3.86 µM) | 9.11 | 4 (≈ 15.4 µM) | 8 (≈ 30.9 µM) | 4 (≈ 15.4 µM) | comparable to that of the reference drug nitroxoline | 6.22 | 2 (≈ 7.72 µM) | 4 (≈ 15.4 µM) | 2 (≈ 7.72 µM) | comparable to that of the reference drug nitroxoline | 7.03
2 | O=[N+]([O-])c1ccc2c(O)ccnc2c1O [Example 30, 7-Nitroquinoline-4,8-diol] | > 100 | > 128 | > 128 | > 128 | > 100 | > 128 | > 128 | > 128 | – | > 100 | > 128 | > 128 | > 128 | – | > 100
3 | COC(=O)N1CCN(c2ccnc3c(O)c([N+](=O)[O-])cc(Cl)c23)CC1 [Example 31, Methyl 4-(5-chloro-8-hydroxy-7-nitroquinolin-4-yl)-piperazine-1-carboxylate] | 0.46 | > 128 | > 128 | > 128 | 0.94 | > 128 | > 128 | > 128 | – | 1.63 | > 128 | > 128 | > 128 | – | 0.96
4 | O=[N+]([O-])c1ccc2c(C3CCCCC3)ccnc2c1O [Example 32, 4-Cyclohexyl-7-nitroquinolin-8-ol] | 0.6 | 1 (≈ 3.67 µM) | 1 (≈ 3.67 µM) | 1 (≈ 3.67 µM) | 1.09 | 64 (≈ 235 µM) | 64 (≈ 235 µM) | 64 (≈ 235 µM) | – | 0.89 | 32 (≈ 118 µM) | 32 (≈ 118 µM) | 32 (≈ 118 µM) | – | 0.23
5 | CC(=O)N1CCN(c2ccnc3c(O)c([N+](=O)[O-])cc(Cl)c23)CC1 [Example 33, 4-(5-Chloro-8-hydroxy-7-nitroquinolin-4-yl)-1-acetylpiperazine] | 18 | 32 (≈ 91.2 µM) | 32 (≈ 91.2 µM) | 32 (≈ 91.2 µM) | 50.5 | > 128 | > 128 | > 128 | – | 16.9 | > 128 | > 128 | > 128 | – | 15
6 | COc1ccnc2c(O)c([N+](=O)[O-])cc(Cl)c12 [Example 34, 5-Chloro-4-methoxy-7-nitroquinolin-8-ol] | 12.7 | 4 (≈ 15.7 µM) | 8 (≈ 31.4 µM) | 4 (≈ 15.7 µM) | 14 | 8 (≈ 31.4 µM) | 32 (≈ 126 µM) | 8 (≈ 31.4 µM) | – | 6.44 | 32 (≈ 126 µM) | 32 (≈ 126 µM) | 32 (≈ 126 µM) | – | 6.78
7 | CN(C)C(=O)N1CCN(c2ccnc3c(O)c([N+](=O)[O-])cc(Cl)c23)CC1 [Example 35, 4-(5-Chloro-8-hydroxy-7-nitroquinolin-4-yl)-N,N-dimethylpiperazine-1-carboxamide] | > 50 | > 128 | > 128 | > 128 | 49.7 | > 128 | > 128 | > 128 | – | 27 | > 128 | > 128 | > 128 | – | 31.2
8 | O=[N+]([O-])c1cc(Cl)c2c(N3CCCCC3)ccnc2c1O [Example 36, 5-Chloro-7-nitro-4-piperidinylquinolin-8-ol] | 2.81 | 8 (≈ 26 µM) | 8 (≈ 26 µM) | 8 (≈ 26 µM) | 2.42 | > 128 | > 128 | > 128 | – | 1.48 | > 128 | > 128 | > 128 | – | 0.96
9 | O=[N+]([O-])c1cc(Cl)c2c(N3CCNCC3)ccnc2c1O [Example 37, 5-Chloro-7-nitro-4-(piperazin-1-yl)quinolin-8-ol] | > 50 | 128 (≈ 415 µM) | > 128 | 128 (≈ 415 µM) | > 50 | > 128 | > 128 | > 128 | – | > 50 | > 128 | > 128 | > 128 | – | 40.4
10 | COC1CCN(c2ccnc3c(O)c([N+](=O)[O-])cc(Cl)c23)CC1 [Example 38, 5-Chloro-4-(4-methoxypiperidin-1-yl)-7-nitroquinolin-8-ol] | 3 | 8 (≈ 23.7 µM) | 16 (≈ 47.4 µM) | 8 (≈ 23.7 µM) | 6.72 | > 128 | > 128 | 128 (≈ 379 µM) | – | 2.36 | 128 (≈ 379 µM) | 128 (≈ 379 µM) | 128 (≈ 379 µM) | – | 1.87
11 | O=[N+]([O-])c1cc(Cl)c2c(N3CCC(C(F)(F)F)CC3)ccnc2c1O [Example 39, 5-Chloro-7-nitro-4-(4-(trifluoromethyl)piperidin-1-yl)quinolin-8-ol] | 1.25 | 4 (≈ 10.6 µM) | 8 (≈ 21.3 µM) | 4 (≈ 10.6 µM) | 0.95 | > 128 | > 128 | > 128 | – | 1.11 | > 128 | > 128 | > 128 | – | 0.43
12 | CN1CCN(c2ccnc3c(O)c([N+](=O)[O-])cc(Cl)c23)CC1 [Example 40] | 11.5 | 32 (≈ 99.1 µM) | 32 (≈ 99.1 µM) | 32 (≈ 99.1 µM) | 24.6 | 128 (≈ 397 µM) | > 128 | 64 (≈ 198 µM) | – | 19.1 | 128 (≈ 397 µM) | > 128 | > 128 | – | 12.6
13 | CC1(C)CCN(c2ccnc3c(O)c([N+](=O)[O-])cc(Cl)c23)CC1 [Example 41, 5-Chloro-4-(4,4-dimethylpiperidin-1-yl)-7-nitroquinolin-8-ol] | 2.02 | 32 (≈ 95.3 µM) | 32 (≈ 95.3 µM) | 32 (≈ 95.3 µM) | 1.03 | > 128 | > 128 | > 128 | – | 2.02 | > 128 | > 128 | > 128 | – | 0.48
14 | O=[N+]([O-])c1cc(Cl)c2c(N3CCCC3)ccnc2c1O [Example 42, 5-Chloro-7-nitro-4-(pyrrolidin-1-yl)quinolin-8-ol] | 25.4 | 32 (≈ 109 µM) | 32 (≈ 109 µM) | 32 (≈ 109 µM) | 42 | > 128 | > 128 | 128 (≈ 436 µM) | – | 33 | > 128 | > 128 | 128 (≈ 436 µM) | – | 17.4

Reference: patent publication US20240246916A1, “7-NITRO-8-HYDROXYQUINOLINE DERIVATIVES, PREPARATION METHOD THEREFORE AND MEDICAL USE THEREOF” (Jiangsu Yahong Meditech Co., Ltd., priority 2021, published 2024)
